Converted amounts (≈) assume the structure as drawn.

System in one test: not listed separately
Nature of the test: Inhibition of NDM-1 (unknown origin).
Details: not given
Details: species or system Bacteria.
The term IC50 denotes the concentration that inhibits the measured activity by half. Low values mean higher potency, high ones lower potency. Consider `COc1cccc2sc(Nc3nnc(-c4cccs4)o3)nc12`, for which the IC50 worked out at 0.692 µM.

For `O=C(O)c1nccn1Cc1ccc(O)cc1`, the IC50 came to 118 µM.

As for `O=C(O)c1nccn1Cc1ccccc1`, the IC50 stood at 63.4 µM.

Turning to `Nc1cccc(-c2cc(C(=O)O)nc(C(=O)O)c2)c1`, the half-maximal inhibitory concentration (IC50) was 0.08 µM.

As to `O=C(Nc1cccc(-c2cc(C(=O)O)nc(C(=O)O)c2)c1)c1ccccc1`, half-maximal inhibition (IC50) was put at 0.13 µM.

The molecule `CN(C)c1ccc(-c2cc(C(=O)O)nc(C(=O)O)c2)cc1` gave a half-inhibitory concentration (IC50) of 0.19 µM.

In turn, `O=C(O)c1cc(-c2ccccc2O)cc(C(=O)O)n1` yielded an IC50 of 0.13 µM.

On to `O=c1c2ccccc2sn1-c1ccccc1`, for which inhibition was half-maximal at 0.16 µM (IC50).

Molecule `O=C(O)[C@@H]1CS[C@H]2CS[C@H](CS)N21` returned an IC50 of 23 µM.

For the molecule `CCC/C(=N\Nc1cccc2cccnc12)C(=O)O`, the IC50 was determined as 68.2 µM.

`CC1(C)S[C@@H]2CS[C@@H](CS)N2[C@H]1C(=O)O`: 180 µM corresponded to half-maximal inhibition (IC50).

For `CC1(C)S[C@H]2CS[C@H](CS)N2[C@@H]1C(=O)O`, the IC50 is 200 µM.

In turn, `NCc1ccc(Cn2ccnc2C(=O)O)cc1` yielded an IC50 of 165 µM.

`O=C(O)[C@H]1CS[C@@H]2CS[C@@H](CS)N12` displayed an IC50 of 109 µM.

Molecule `CCCCC(=O)NC(Cc1c[nH]c2ccccc12)C(=O)SCC(=O)O` (stereo not drawn) had a 50% inhibitory concentration (IC50) of 54.9 µM.

What is called pIC50 is the negative decadic logarithm of the IC50, by convention in mol/L. Low values mean a high IC50, high ones a low IC50. In turn, `Cc1cc(-c2ccccc2)c(C(=O)O)[nH]1` gave a pIC50 of 4.5.

On to `CC1=C(c2ccc(Cl)cc2)N(/C(C)=N/c2ccc(Br)cc2)C(c2ccc(Cl)cc2)N1c1ccc(Br)cc1` (stereo not drawn), for which inhibition was half-maximal at 600 µM (IC50).

Turning to `CCCCC(=O)NC(Cc1ccccc1)C(=O)SCC(=O)O` (stereo not drawn), the IC50 was determined as 28.6 µM.

Regarding `CSCCC(NC(=O)Cc1ccccc1)C(=O)SCC(=O)O` (stereo not drawn), the IC50 worked out at 19.7 µM.

In turn, `O=C(O)c1ccc(N(Cc2ccccc2)C(=O)c2cccs2)c(CP(=O)(O)O)n1` came in with an IC50 of 0.306 µM.

`CC(=O)NC1=C(S)/C(=C\S)NC1=O` returned an IC50 of 0.11 µM.

`O=C(O)CSC(=O)C(Cc1c[nH]c2ccccc12)NC(=O)Cc1ccc(-c2ccccc2)cc1` (stereo not drawn) returned an IC50 of 16.6 µM.

As for `CCCCC(=O)NC(CCSC)C(=O)SCC(=O)O` (stereo not drawn), half-maximal inhibition (IC50) required 37.7 µM.

For `O=C(O)CSC(=O)C(Cc1ccccc1)NC(=O)Cc1ccc(-c2ccccc2)cc1` (stereo not drawn), inhibition was half-maximal at 44 µM (IC50).

`C[C@@H](CS)C(=O)N[C@@H](C(=O)O)c1ccc2cc[nH]c2c1` displayed an IC50 of 64.8 µM.

As to `CC(=O)C1CSC(C(=O)O)N1` (stereo not drawn), the midpoint of inhibition, the IC50, lay at 3.45 µM.

With `O=C(O)c1ccc(O)c(CP(=O)(O)O)n1`, inhibition was half-maximal at 0.322 µM (IC50).

`Oc1c(C(Nc2ccccn2)c2cccs2)ccc2cccnc12` (stereo not drawn) returned an IC50 of 0.463 µM.

Molecule `O=C(O)CSC(=O)C(Cc1c[nH]c2ccccc12)NC(=O)Cc1ccccc1` (stereo not drawn) showed an IC50 of 27.9 µM.

The molecule `O=C(Cc1ccccc1)N[C@@H]1C(=O)N2C(C(=O)O)=C(CSc3nnc(-c4ccc(-n5[se]c6ccccc6c5=O)cc4)[nH]3)CSC12` (stereo partly drawn) returned an IC50 of 2.93 µM.

As for `Cc1cccc(-c2cc[nH]c2C(=O)O)c1`, the pIC50 came to 4.2.

With `CCCC/C(=N\Nc1cccc2ccccc12)C(=O)O`, half-maximal inhibition (IC50) required 28.1 µM.

For `O=C(O)c1cccc(CP(=O)(O)O)n1`, half-maximal inhibition (IC50) required 0.374 µM.

On to `Oc1c(C(Nc2ccc(F)cc2)c2cncs2)ccc2cccnc12` (stereo not drawn), for which inhibition was half-maximal at 10.3 µM (IC50).

On to `CCCC/C(=N\Nc1cccc2cccnc12)C(=O)O`, for which 82.3 µM corresponded to half-maximal inhibition (IC50).

For `CC1=C(c2ccccc2)N(/C(C)=N/c2ccc(Cl)cc2)C(c2ccccc2)N1c1ccc(Cl)cc1` (stereo not drawn), the concentration for half-maximal inhibition (IC50) came to 900 µM.

As to `CC1=C(c2ccc(Cl)cc2)N(/C(C)=N/c2ccc(Cl)cc2)C(c2ccc(Cl)cc2)N1c1ccc(Br)cc1` (stereo not drawn), the midpoint of inhibition, the IC50, lay at 400 µM.

`C[C@H](CS)C(=O)N[C@@H](C(=O)O)c1ccc2cc[nH]c2c1`: half-maximal inhibition (IC50) was put at 24.8 µM.

Turning to `O=C(O)C(=O)CBr` [BROMOPYRUVATE], 2.57 µM corresponded to half-maximal inhibition (IC50).

`CC(C)c1cc2c(c(O)c1O)[C@@]1(C(=O)O)CCCC(C)(C)[C@@H]1CC2` [CARNOSIC ACID] returned an IC50 of 27.1 µM.

`O=C(O)c1cccc(C(=O)O)n1` [DIPICOLINIC ACID] yielded an IC50 of 1.13 µM.

In the case of `CCN(CC)C(=S)SSC(=S)N(CC)CC` [DISULFIRAM], it took 0.13 µM to reach half-maximal inhibition (IC50).

Biological target in another test: not listed separately
The test can be described thus: Binding affinity to NDM-1 (unknown origin) assessed as inhibition constant.
Details: not given
Further details: species or system Bacteria.
Broadly, the Ki is a measure of affinity in units of concentration, obtained from inhibition or displacement. `O=C(CSc1n[nH]c(-c2ccncc2)n1)Nc1ccccc1`: the Ki turned out to be 0.42 µM.

As for `O=C(CSc1nnc(-c2ccncc2)s1)Nc1ccccc1`, the Ki was 1.2 µM.

Take `O=C(CSc1nnc(-c2ccccc2O)[nH]1)Nc1ccccc1`: the Ki is 0.43 µM.

Take `O=C(O)c1ncsc1NS(=O)(=O)c1cccnc1`: the Ki came to 0.29 µM.

On to `O=C(NOC(=O)Oc1ccccc1)OCc1ccccc1`, for which the Ki was 140 µM.

Regarding `O=C(CSc1nnc(-c2ccccc2O)s1)Nc1nc2ccccc2s1`, the Ki is 0.81 µM.

As to `O=C(CSc1nnc(-c2ccccc2O)[nH]1)Nc1nc2ccccc2s1`, the Ki was 0.35 µM.

In the case of `O=C(CSc1nnc(-c2ccccc2O)o1)Nc1ccccc1`, the Ki turned out to be 0.6 µM.

As for `O=C(CSc1nnc(-c2ccccc2O)s1)Nc1ccccc1`, the Ki amounted to 0.64 µM.

For `O=C(CSc1nnc(-c2ccncc2)o1)Nc1ccccc1`, the Ki came to 0.23 µM.

On to `O=Cc1coc2ccccc2c1=O`, for which the Ki was determined as 0.58 µM.

As for `N[C@@H](C(=O)N[C@@H]1C(=O)N2C(C(=O)O)=C(Cl)CS[C@H]12)c1ccccc1` [CEFACLOR ANHYDROUS], the Ki was determined as 2300 µM.

For `O=c1c2ccccc2[se]n1-c1ccccc1` [EBSELEN], the inhibition constant (Ki) was 0.38 µM.

For the next test, the system named is Klebsiella pneumoniae. Nature of the test: Antibacterial activity against Klebsiella pneumoniae N11-2218 expressing NDM-1infected in mouse assessed as survival rate at 10 mg/kg,sc measured after 5 days. It is filed as functional. The note with it: N11-2218, 120 h, time 5 day.
As to `N[C@H](CN[C@H](CN[C@@H](CC(=O)O)C(=O)O)C(=O)O)C(=O)O`, the survival at 10 mg/kg was 95%.

Regarding `COc1cc(/C=C/c2ccc(O)cc2)cc(OC)c1` [PTEROSTILBENE], the survival at 10 mg/kg stood at 52%.

The subject of the next test is Escherichia coli. The test can be described thus: Antibacterial activity against Escherichia coli expressing NDM-1.
Details: not given
It counts as functional.
As a reminder, the MIC is the smallest concentration in the dilution series that meets the test's criterion for growth inhibition. In turn, `CCN(CC)C(=S)SSC(=S)N(CC)CC` [DISULFIRAM] yielded an MIC of 16 µg/mL (≈ 54 µM).

Values taken from ChEMBL document CHEMBL5226335, “Efforts towards the inhibitor design for New Delhi metallo-beta-lactamase (NDM-1)” (Eur J Med Chem, 2021).
